Results on two compounds are retold here after patent publication US20220153746A1, “NITROGEN OXIDE-DONATING PDE-5 AND/OR PDE-6 INHIBITOR COMPOUNDS, AND USES THEREOF” (ILDONG PHARMACEUTICAL CO., LTD., priority 2020, published 2022).

Molecules are shown by their SMILES.

Broadly, the IC50 is the concentration needed to halve the response being measured. For orientation: CLint scaled means the capacity of the preparation to metabolise the compound, expressed as a volume cleared per time. A high value points to faster metabolism.

Series [1] concerns the target human PDE-5A1 (Homo sapiens, UniProt O76074). In words: Human PDE-5A1 inhibition assay (fluorescence polarization, FAM-cGMP). It counts as biochemical. The note with it: read-out: IC50 (μM) PDE5A1. For orientation: Polarisation of emitted light reports the rotation of a fluorescent probe.
Series [2] is described as follows: Metabolic stability in human liver microsomes. The series is classed as in vitro ADME. The note with it: 37° C., 0-60 minutes. How it is done:
This example illustrates the metabolic stability of selected compounds in human liver microsomes samples.
Both test and control compound solutions were prepared by diluting 5 μL of the respective stock solutions (10 mM in DMSO) containing either the test or control compound with 495 μL of acetonitrile (ACN) to give intermediate solutions with concentrations of 100 μM (99% ACN).
β-Nicotinamide adenine dinucleotide phosphate tetrasodium salt (NADPH.4Na) was purchased from BONTAC (cat. No. BT04). The NADPH working solution (10 unit/mL) was prepared by combining the appropriate amount of NADPH powder and a MgCl2 solution (10 mM) to give final concentration in the reaction system of 1 unit/mL.
The appropriate concentrations of the microsome working solutions were prepared in 100 mM potassium phosphate buffer.
Cold (4° C.) acetonitrile solution containing 200 ng/mL tolbutamide and 200 ng/mL labetalol (internal standard) was used as the stop solution.
Liver microsomes solution was diluted to 0.56 mg/mL in 100 mM phosphate buffer, and 445 μL of this solution was transferred into pre-warmed (10 minutes) “incubation” plates T60 and NCF60; the “incubation” plates T60 and NCF60 were pre-warmed for 10 minutes at 37° C. with constant shaking.
54 μL of the liver microsome solutions was transferred to the blank plate, followed by addition of 6 μL of the NAPDH cofactor solution and 180 μL of the quenching solution to the same blank plate.
5 μL of the compound working solution (100 μM concentration) was next added to into the “incubation” plates (T60 and NCF60) containing microsomes and mixed 3 times thoroughly. For the NCF60 plate, 50 μL of the buffer solution was added, mixed 3 times thoroughly, and incubated at 37° C. for 60 minutes under constant shaking.
In the “Quenching” plate at T0 (T=0 min), 180 μL of quenching solution and 6 μL of the NAPDH cofactor solution were added, and the resulting plate was chilled to prevent evaporation.
In the T60 plate, after it was thoroughly mixed, 54 μL of the mixture was immediately transferred to the “quenching” plate for the 0-minute time point, followed by addition of 44 μL of NAPDH cofactor solution to the incubation plate (T60). The resulting mixture was then incubated at 37° C. for 60 minutes under constant shaking. At time points of 5, 10, 20, 30 and 60 minutes, 180 μL of the quenching solution was added to the “quenching” plates, followed by serial transfer of 60 μL of the mixture (per time point) from the T60 plate to the “Quenching” plates.
For the NCF60 plates, 60 μL of the sample solution was transferred from the NCF60 incubation plate to the “Quenching” plate containing quenching solution at T=60 min time point. […]

Series [3] concerns intraocular pressure (IOP) of ocular hypertensive rabbits. The series is described as follows: IOP lowering effect in ocular hypertensive rabbits (Example 9 Phase 2). It counts as in vivo. The note with it: for Reduction ratio of IOP / OD IOP Mean: 50 μL/eye t.i.d.; for Reduction ratio of IOP: treated right vs vehicle left eye; for IOP compared with the vehicle treated eyes: p≤0.05; for OD IOP Mean: treated right eye, Day 10/11. How it is done:
Phase 2: To confirm the IOP lowering effect of test article at different concentrations in ocular hypertensive rabbits. Modeling was induced by intracameral injection of elastic substance in both eyes, once. Then, positive control articles/test article was instilled into right eyes of animals, 50 μL/eye, once at 5-15 minutes, 3 and 6 hours post modeling, respectively. All left eyes of animals in each group were dosed with vehicle, 50 μL/eye, once at 5-15 minutes, 3 and 6 hours post modeling, respectively. IOPs was measured at pre-modeling, 1, 2, 4, 6, 8, and 10 hours post first dose.
For further analysis of the IOP reduction effect, the IOP reduction ratio was calculated using the difference between the TA/PA treated and vehicle treated eyes at each time points post first dosing. The results were tabulated below:
Animals were sedated by Ketamine (30˜50 mg/kg) and anesthetized by Xylazine (5˜10 mg/kg), intramuscularly. Disinfected the conjunctival sac by washing with 5% povidone iodine, and then washed the conjunctival sac with saline. Fixed the eyeball with forceps, then inserted needle from the temporal limbus horizontally, avoided damaging the corneal endothelial and iris. Held the syringe still and injected the Medical Sodium Hyaluronate Gel slowly into the anterior chamber, 100 μl/eye, waited for at least 10 seconds, then pulled out the needle slowly. Pressed the injection spot immediately with swab for at least 3 minutes, blocked the injection spot with one drop of tissue adhesive.
For Phase 2, 50 μL of 1% and 2% Compound 18, 0.024% latanoprostene bunod ophthalmic solution and 0.005% latanoprost eye drops were instilled into the right eyes and the same volume of Vehicle (Gel-blank) into the left eyes in Group 5 to Group 8 of Ocular Hypertensive Rabbits, 50 μL/eye, three times. The first day of dosing in phase 1 was designated as Day 1.
Delivery Method: Drawed 50 μL of the articles with a pipette, pulled out the lower eyelid of the animal, dropped the article into the conjunctiva sac, and gently closed the upper and lower eyelids for a few times.
Species/Strain: New Zealand White Rabbits (Oryctolagus cuniculus). The New Zealand White Rabbit was used in this study. This is commonly used specie for non-clinical studies of ophthalmic formulations, for which there is a large historical database, and the relative large cornea size is suitable for topical operations.
Restrained the animal, made the testing eye perpendicular to the probe of the TonoVet tonometer, measured the IOP for at least three times until the values are stable. The mean of the last three stable values were calculated as the final IOP value.
IOP Measurement in Ocular Hypertensive Rabbits: IOP was measured at pre-modeling, and once at 1, 2, 4, 6, 8, and 10 hours post first daily dose in study phase 2.

`CCCc1nn(C)c2c(=O)[nH]c(-c3cc(S(=O)(=O)N4CC(CCCO)C4)ccc3OCC)nc12` [Compound 4, 5-(2-ethoxy-5-((3-(3-hydroxypropyl)azetidin-1-yl)sulfonyl)phenyl)-1-methyl-3-propyl-1,6-dihydro-7H-pyrazolo[4,3-d]pyrimidin-7-one]: the IC50 in series [1] is under 0.01 µM. This compound also registered an intrinsic clearance (CLint scaled) at 1 µM in series [2] of 357 mL/min/kg.
On to `CCCc1nn(C)c2c(=O)[nH]c(-c3cc(S(=O)(=O)N4CC(CCCO[N+](=O)[O-])C4)ccc3OCC)nc12` [Compound 18, 3-(1-((4-ethoxy-3-(1-methyl-7-oxo-3-propyl-6,7-dihydro-1H-pyrazolo[4,3-d]pyrimidin-5-yl)phenyl)sulfonyl)azetidin-3-yl)propyl nitrate], for which the CLint scaled at 1 µM in series [2] came to 934 mL/min/kg. In addition, the tolerability entry in series [3] (Example 9, topical instillation in rabbits) is “well tolerated”. Moreover, the “Reduction ratio of IOP” value amounted to 23.36% in series [3] (Group 7, 10 mg/mL, 1 h post first dose); 35.65% in series [3] (Group 7, 10 mg/mL, 2 h post first dose); 21.68% in series [3] (Group 7, 10 mg/mL, 4 h post first dose); 28.06% in series [3] (Group 7, 10 mg/mL, 6 h post first dose); 23.97% in series [3] (Group 7, 10 mg/mL, 8 h post first dose); 21.67% in series [3] (Group 7, 10 mg/mL, 10 h post first dose). In addition, the “Reduction ratio of IOP” value in series [3] (Group 8, 20 mg/mL, 1 h post first dose) was 45.31%; in series [3] (Group 8, 20 mg/mL, 2 h post first dose) it was 34.59%; in series [3] (Group 8, 20 mg/mL, 4 h post first dose), 26.95%; in series [3] (Group 8, 20 mg/mL, 6 h post first dose) it was 18.04%; in series [3] (Group 8, 20 mg/mL, 8 h post first dose), 10.85%; in series [3] (Group 8, 20 mg/mL, 10 h post first dose), −5.73%. For the same compound, the “IOP compared with the vehicle treated eyes” value in series [3] (Phase 2, 10 mg/mL, at 2 h post dosing) is “significant decreased IOPs”; in series [3] (Phase 2, 20 mg/mL, at 1 h post dosing), “significant decreased IOPs”. The “OD IOP Mean” value in series [3] (Phase 2 Group 7, 10 mg/mL (1%), 1 h post first dose) came to 9.19; in series [3] (Phase 2 Group 7, 10 mg/mL (1%), 2 h post first dose) it was 13.80; in series [3] (Phase 2 Group 7, 10 mg/mL (1%), 4 h post first dose), 20.47; in series [3] (Phase 2 Group 7, 10 mg/mL (1%), 6 h post first dose) it was 21.53; in series [3] (Phase 2 Group 7, 10 mg/mL (1%), 8 h post first dose), 17.82; in series [3] (Phase 2 Group 7, 10 mg/mL (1%), 10 h post first dose), 15.22. Moreover, the “OD IOP Mean” value is recorded as 11.74 in series [3] (Phase 2 Group 8, 20 mg/mL (2%), 1 h post first dose); 19.67 in series [3] (Phase 2 Group 8, 20 mg/mL (2%), 2 h post first dose); 25.57 in series [3] (Phase 2 Group 8, 20 mg/mL (2%), 4 h post first dose); 28.93 in series [3] (Phase 2 Group 8, 20 mg/mL (2%), 6 h post first dose); 27.40 in series [3] (Phase 2 Group 8, 20 mg/mL (2%), 8 h post first dose); 22.63 in series [3] (Phase 2 Group 8, 20 mg/mL (2%), 10 h post first dose).
